Data from PubChem BioAssay AID1259411 (Chemical Carcinogenesis Research Information System (CCRIS), 2018).
Active and inactive are the calls of the source. The rule behind the calls is not given here.

Test system: rodent carcinogenicity bioassays, tumor incidence
Experiment: CCRIS carcinogenicity studies
Procedure, shortened: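 Archive of carcinogenicity, mutagenicity, tumor promotion and tumor inhibition results drawn from journals, NCI reports and other sources, expert-reviewed; covers 1985-2011 and is no longer updated.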

SMILES: Cn1c(N)nc2ncc(-c3ccccc3)cc21
- carcinogen call (Species: HAMSTER, Strain/Sex: RAPID ACETYLATOR CONGENIC/MALE, Route: ORAL, Dose: 75 MG/KG BW/DOSE BY GAVAGE, 2 DOSES/WK FOR 4 WK FOLLOWED BY 1 DOSE/WK FOR 1 WK AND 1 DOSE/2 WK FOR 4 WK, FOLLOWED BY A H): inactive; negative
- carcinogen call (Species: HAMSTER, Strain/Sex: SLOW ACETYLATOR CONGENIC/MALE, Route: ORAL, Dose: 75 MG/KG BW/DOSE BY GAVAGE, 2 DOSES/WK FOR 4 WK FOLLOWED BY 1 DOSE/WK FOR 1 WK AND 1 DOSE/2 WK FOR 4 WK, FOLLOWED BY A H): inactive; negative
- carcinogen call (Species: MOUSE, Strain/Sex: B6C3F1/MALE, Route: INTRAPERITONEAL, Dose: 0, 0.625 UMOL IN 35 µL DMSO ON D 1, 8, AND 15 AFTER BIRTH (STUDY DURATION: 8 MO)): inactive; negative
- carcinogen call (Species: MOUSE, Strain/Sex: B6C3F1/MALE, Route: INTRAPERITONEAL, Dose: 0, 0.625 UMOL IN 35 µL DMSO ON D 1, 8, AND 15 AFTER BIRTH (STUDY DURATION: 12 MO), Tumor Site: Type of Lesion: LIVER: HEPATOCELLULAR ADENOMA): active; positive
- carcinogen call (Species: MOUSE, Strain/Sex: B6C3F1/MALE, Route: INTRAPERITONEAL, Dose: 0, 1.25 UMOL IN 35 µL DMSO ON D 1, 8, AND 15 AFTER BIRTH (STUDY DURATION: 8 MO), Tumor Site: Type of Lesion: LIVER: HEPATOCELLULAR ADENOMA): active; positive
- carcinogen call (Species: MOUSE, Strain/Sex: B6C3F1/MALE, Route: INTRAPERITONEAL, Dose: 0, 1.25 UMOL IN 35 µL DMSO ON D 1, 8, AND 15 AFTER BIRTH (STUDY DURATION: 12 MO), Tumor Site: Type of Lesion: LIVER: HEPATOCELLULAR ADENOMA, HEPATOCELLULAR CARCINOMA): active; positive
- carcinogen call (Species: MOUSE, Strain/Sex: C57/FEMALE, Route: ORAL, Dose: 0, 300 PPM IN HIGH FAT DIET FOR 40 WK, FOLLOWED BY CONTINUOUS FEEDING OF HIGH FAT DIET UNTIL STUDY TERMINATION (STUDY DU, Tumor Site: Type of Lesion: SMALL INTESTINE: ADENOCARCINOMAS OR ADENOMAS): active; positive
- carcinogen call (Species: MOUSE, Strain/Sex: C57/MALE, Route: ORAL, Dose: 0, 300 PPM IN HIGH FAT DIET FOR 40 WK, FOLLOWED BY CONTINUOUS FEEDING OF HIGH FAT DIET UNTIL STUDY TERMINATION (STUDY DU, Tumor Site: Type of Lesion: SMALL INTESTINE: ADENOCARCINOMAS OR ADENOMAS, LYMPHATIC SYSTEM: LYMPHOMA): active; positive
- carcinogen call (Species: MOUSE, Strain/Sex: CDF1/FEMALE, Route: ORAL, Dose: 0, 0.04% IN THE DIET FOR DURATION OF STUDY (STUDY DURATION: 579 D), Tumor Site: Type of Lesion: HEMATOPOIETIC SYSTEM: LYMPHOMA): active; positive
- carcinogen call (Species: MOUSE, Strain/Sex: CDF1/MALE, Route: ORAL, Dose: 0, 0.04% IN THE DIET FOR DURATION OF STUDY (STUDY DURATION: 579 D), Tumor Site: Type of Lesion: HEMATOPOIETIC SYSTEM: LYMPHOMA): active; positive
- carcinogen call (Species: MOUSE, Strain/Sex: EU-PIM-1/FEMALE, Route: ORAL, Dose: 0, 0.03% IN DIET FOR 31 WK (STUDY DURATION: 31 WK)): inactive; negative
- carcinogen call (Species: MOUSE, Strain/Sex: EU-PIM-1/MALE, Route: ORAL, Dose: 0, 0.03% IN DIET FOR 31 WK (STUDY DURATION: 31 WK)): inactive; negative
- carcinogen call (Species: MOUSE, Strain/Sex: NON-TRANSGENIC WILD-TYPE/FEMALE, Route: ORAL, Dose: 0, 0.03% IN DIET FOR 31 WK (STUDY DURATION: 31 WK)): inactive; negative
- carcinogen call (Species: MOUSE, Strain/Sex: NON-TRANSGENIC WILD-TYPE/MALE, Route: ORAL, Dose: 0, 0.03% IN DIET FOR 31 WK (STUDY DURATION: 31 WK)): inactive; negative
- carcinogen call (Species: MOUSE, Strain/Sex: TRANSGENIC EU-PIM-1/FEMALE, Route: ORAL, Dose: 0, 0.03% IN DIET FOR 31 WK (STUDY DURATION: 31 WK), Tumor Site: Type of Lesion: LYMPHATIC SYSTEM: LYMPHOMA): active; positive
- carcinogen call (Species: MOUSE, Strain/Sex: TRANSGENIC EU-PIM-1/MALE, Route: ORAL, Dose: 0, 0.03% IN DIET FOR 31 WK (STUDY DURATION: 31 WK)): inactive; negative
- carcinogen call (Species: MOUSE, Strain/Sex: WILD-TYPE/FEMALE, Route: ORAL, Dose: 0, 0.03% IN DIET FOR 31 WK (STUDY DURATION: 31 WK)): inactive; negative
- carcinogen call (Species: MOUSE, Strain/Sex: WILD-TYPE/MALE, Route: ORAL, Dose: 0, 0.03% IN DIET FOR 31 WK (STUDY DURATION: 31 WK)): inactive; negative
- carcinogen call (Species: RAT, Strain/Sex: F344/FEMALE, Route: ORAL, Dose: 0, 25, 100 PPM IN DIET FOR 104 WK (STUDY DURATION: 104 WK), Dose: 0, 25, 100 PPM IN DIET FOR 104 WK (STUDY DURATION: 104 WK), Tumor Site: Type of Lesion: MAMMARY GLAND: ADENOCARCINOMA): active; positive
- carcinogen call (Species: RAT, Strain/Sex: F344/FEMALE, Route: ORAL, Dose: 0, 400 PPM IN DIET FOR 52 WK (STUDY DURATION: 52 WK), Tumor Site: Type of Lesion: MAMMARY GLAND: ADENOCARCINOMA): active; positive
- carcinogen call (Species: RAT, Strain/Sex: F344/MALE, FEMALE, Route: MATERNAL MILK, Dose: 200 PPM IN DIET TO MOTHERS FROM D OF MATING TO WEANING, THEN OFFSPRING ON CONTROL DIET FOR 60 WKS (STUDY DURATION: 63 WK): inactive; negative; prostate and colon tumors not enhanced; multiplicity of aberrant crypt
- carcinogen call (Species: RAT, Strain/Sex: F344/MALE, Route: ORAL, Dose: 0, 25, 100 PPM IN DIET FOR 104 WK (STUDY DURATION: 104 WK), Dose: 0, 25, 100 PPM IN DIET FOR 104 WK (STUDY DURATION: 104 WK), Tumor Site: Type of Lesion: COLON: CARCINOMA): active; positive
- carcinogen call (Species: RAT, Strain/Sex: F344/MALE, Route: ORAL, Dose: 0, 100, 300 PPM IN DIET FOR 40 WK (STUDY DURATION: 40 WK), Dose: 0, 100, 300 PPM IN DIET FOR 40 WK (STUDY DURATION: 40 WK), Tumor Site: Type of Lesion: PROSTATE (VENTRAL): PROSTATIC INTRAEPITHELIAL NEOPLASIA): active; positive
- carcinogen call (Species: RAT, Strain/Sex: F344/MALE, Route: ORAL, Dose: 0, 400 PPM IN DIET FOR 52 WK (STUDY DURATION: 52 WK), Tumor Site: Type of Lesion: COLON: ADENOCARCINOMA): active; positive
- carcinogen call (Species: RAT, Strain/Sex: F344/MALE, Route: ORAL, Dose: 0, 400 PPM IN DIET FOR 52 WK (STUDY DURATION: 52 WK), Tumor Site: Type of Lesion: PROSTATE (VENTRAL): CARCINOMA): active; positive
- carcinogen call (Species: RAT, Strain/Sex: SPRAGUE DAWLEY/FEMALE, 43 D OLD, Route: ORAL, Dose: 75 MG/DOSE, 10 DOSES GIVEN ONCE/D OVER 12 D (STUDY DURATION: 6 MO), Tumor Site: Type of Lesion: MAMMARY GLAND): active; positive (5% incidence)
- carcinogen call (Species: RAT, Strain/Sex: SPRAGUE DAWLEY/FEMALE, 150 D OLD, Route: ORAL, Dose: 75 MG/DOSE, 10 DOSES GIVEN ONCE/D OVER 12 D (STUDY DURATION: 6 MO), Tumor Site: Type of Lesion: MAMMARY GLAND): inactive; negative (0% incidence)
- carcinogen call (Species: RAT, Strain/Sex: SPRAGUE-DAWLEY/FEMALE, Route: ORAL, Dose: 0, 12.5, 50 PPM IN DIET FOR DURATION OF STUDY (STUDY DURATION: 48 WK), Dose: 0, 12.5, 50 PPM IN DIET FOR DURATION OF STUDY (STUDY DURATION: 48 WK), Tumor Site: Type of Lesion: MAMMARY GLAND: TUMOR): active; positive
- carcinogen call (Species: RAT, Strain/Sex: SPRAGUE-DAWLEY/FEMALE, Route: ORAL, Dose: 0, 25, 100, 200 PPM IN DIET FOR 48 WK (STUDY DURATION: 48 WK), Dose: 0, 25, 100, 200 PPM IN DIET FOR 48 WK (STUDY DURATION: 48 WK), Tumor Site: Type of Lesion: MAMMARY GLAND: TUMOR): active; positive
- carcinogen call (Species: RAT, Strain/Sex: SPRAGUE-DAWLEY/FEMALE, Route: ORAL, Dose: 0, 25, 100, 200 PPM IN DIET FOR DURATION OF STUDY (STUDY DURATION: 48 WK), Dose: 0, 25, 100, 200 PPM IN DIET FOR DURATION OF STUDY (STUDY DURATION: 48 WK), Tumor Site: Type of Lesion: MAMMARY GLAND: TUMOR): active; positive
- carcinogen call (Species: RAT, Strain/Sex: SPRAGUE-DAWLEY/FEMALE, Route: ORAL, Dose: 0, 25, 100 PPM IN DIET FROM WEANING TO 47 WK OF AGE (STUDY DURATION: 47 WK), Dose: 0, 25, 100 PPM IN DIET FROM WEANING TO 47 WK OF AGE (STUDY DURATION: 47 WK), Tumor Site: Type of Lesion: MAMMARY GLAND: TUMOR): active; positive
- carcinogen call (Species: RAT, Strain/Sex: SPRAGUE-DAWLEY/FEMALE, Route: ORAL, Dose: 0, 75 MG/KG IN 5 ML CORN OIL 1/D ON DAYS 1-5 AND 8-12 OF STUDY FOLLOWED 2 DAYS LATER BY A HIGH-FAT DIET FOR DURATION OF, Tumor Site: Type of Lesion: MAMMARY GLAND: TUMOR): active; positive
- carcinogen call (Species: RAT, Strain/Sex: SPRAGUE-DAWLEY/FEMALE, Route: TRANSPLACENTAL, ORAL, Dose: 0, 100 PPM IN DIET OF MOTHERS BEGINNING 4 WK BEFORE MATING AND CONTINUING THROUGH LACTATION THEN OFFSPRING ADMINISTERED, Tumor Site: Type of Lesion: MAMMARY GLAND: TUMOR): active; positive
- carcinogen call (Species: RAT, Strain/Sex: SPRAGUE-DAWLEY/MALE, Route: ORAL, Dose: 0, 25, 100 PPM IN DIET FROM WEANING TO 47 WK OF AGE (STUDY DURATION: 47 WK), Dose: 0, 25, 100 PPM IN DIET FROM WEANING TO 47 WK OF AGE (STUDY DURATION: 47 WK)): inactive; negative
- carcinogen call (Species: RAT, Strain/Sex: SPRAGUE-DAWLEY/MALE, Route: TRANSPLACENTAL, ORAL, Dose: 0, 100 PPM IN DIET OF MOTHERS BEGINNING 4 WK BEFORE MATING AND CONTINUING THROUGH LACTATION THEN OFFSPRING ADMINISTERED): inactive; negative
- carcinogen call (Species: RAT, Strain/Sex: STRAIN-CD/FEMALE, Route: GAVAGE, Dose: 0, 50 UMOL IN 0.5 ML TRIOCTANOIN 1/WK FOR 8 WK (STUDY DURATION: 49 WK), Tumor Site: Type of Lesion: MAMMARY GLAND: FIBROADENOMA, ADENOCARCINOMA): active; positive
